In article PMC11062894, “Protein-based bandpass filters for controlling cellular signaling with chemical inputs” (Nature Chemical Biology, 2023):
“And” between values parts separate entries of the source, which are not always exact repeats. Equal entries are not always repeated.

System: GEMS receptors with CBPA11 (BclXL–LD3 and BclXLhigh variants), STAT3-driven SEAP in HEK293T cells
Assay: GEMS SEAP reporter assay, CBPA11 (BclXLhigh, LD3-v and BclXL-v variants) with A-1155463
Type: cell-based
Set-up: key to Raw data (SEAP) / SEAP, replicate values / Raw data of Figure 5b / Raw data Figure 5e / Raw data of Independent repeat of CBPA11-v1 vs CBPA11-v1-LD3v3 / Raw data of Independent repeat of CBPA11-v3 vs CBPA11-v3-LD3v3 / Raw data of Figure 5b, CBPA11-v1-LD3v3 (SEAP reporter raw value, single replicate) / Raw data of Figure 5b, CBPA11-v1 (SEAP reporter raw value, single replicate): SEAP activity in U/L in culture supernatant
Description: To rationally design a CBP responding to a chemical input, we used BclXL as the druglow receptor, LD3 as the designed binder and a designed BclXL variant as the drughigh receptor (referred to as BclXLhigh) to construct a CBP responsive to BclXL inhibitors (Fig. 4a). To design BclXLhigh, we used a multistate design computational protocol described elsewhere[26] […] Thus, BclXLhigh-v(1–3) were chosen as the functional drughigh receptors, resulting in three A-1155463-controlled CBPs (referred to as CBPA11-v(1–3)) (Fig. 4c–e).
HEK293T cells were seeded in a 96-well plate 24 h before transfection. The transfection mix in each well consisted of 3 ng of constitutive human CMV promoter driven mammalian STAT3 expression vector (PhCMV-STAT3-pA), 30 ng of STAT3-induced reporter expression (OStat3-PhCMVmin-SEAP-pA) and 50 ng of expression vectors for each GEMS receptor chain (PSV40-IgK-(drughigh receptor)-EpoRm-IL-6RBm-pA and PSV40-IgK-(druglow receptor-GGGGSX3-LD3)-EpoRm-IL-6RBm-pA). For the specific drughigh receptor and druglow receptor used in the different cellular assays, they are indicated as wild type or with mutations. Then, plasmid DNA was mixed with 50 μl opti-MEM (Thermo Fisher) and 600 ng of polyethyleneimine (Polysciences, catalog no. 24765-1). For drug treatment experiments, drugs were added 12 h post-transfection and incubated with cells for 24 h before the SEAP reporter detection assay.
SEAP activity (U l^−1) in cell culture supernatants was quantified by kinetic measurements at 405 nm (1 minute per measurement for 30 cycles) of absorbance increase due to phosphatase-mediated hydrolysis of para-nitrophenyl phosphate (pNPP).
Binding affinities of SPR drug competition assays were calculated using three-parameter nonlinear regression in GraphPad Prism (v.8.3.0). Representative data of cell assays are presented as individual values and mean values (bars). n = 3 refers to biological replicates. All IC50 or EC50 values of cell assays reported were calculated using four-parameter nonlinear regression ± s.d. Bandpass features of cutoff concentrations and Bandwidth90% were estimated based on the curve fitted using bell-shaped curve nonlinear regression in GraphPad Prism (v.8.3.0). […]
Supplementary Figure 4: Design, screening and validation of BclXLhigh variants. a) Screening of BclXLhigh variants in the GEMS platform. […]
Dissociation constant measurement of BclXLhigh-v(1-3) and LD3. Equilibrium curves are fitted using […]
BclXLhigh-v1 (purple), BclXLhigh-v2 (blue), […]
a) Bcl2high-based bandpass filter designs were developed and to respond to different concentrations of […]
corresponding inhibitor. c) Screening of Bcl2high-based bandpass filter variants in the GEMS platform.
The designed binder LD3 was fused to the druglow-receptor (PSV40-IgK-Bcl2-LD3-EpoRm-IL-6RBm-pA) in one EpoR chain and Bcl2high variants with the insensitive Bcl2 (iBcl2) as control in the other EpoR chain (PSV40-IgK-Bcl2high-EpoRm-IL-6RBm-pA). HEK293T cells were transfected with indicated […]
the mean of six biological replicates ± s.d., overlaid with a scatter dot plot of the original data points.
(1 picture or pasted object on this page, not shown here)
Supplementary Figure 6: Binding affinities and drug resistances of Bcl2high-v(2,4,5) assessed by […]
a) Measurement of dissociation constants for Bcl2high-v(2,4,5) and LD3 interactions. Equilibrium curves […]
Bcl2high-v(2,4,5) measured by SPR. 5 μM of Bcl2 or indicated variants were mixed with 10 μM of […]
Bcl2high-v2 (red), Bcl2high-v4
Supplementary Figure 7: Screening of LD3 variants in CBPA11-v(1-3) and raw data of CBPA11-v(1,3) with LD3-v3 variant. a-c) Screening of LD3 and LD3-v(1-3) variants in complex with BclXL for more sensitive CBPA11-v1 (a), CBPA11-v2 (b), CBPA11-v3 (c) in the GEMS platform. The LD3 variants replaced the role of LD3 (PSV40-IgK-BclXL-LD3-v(1-3)-EpoRm-IL-6RBm-pA) in one EpoR chain and BclXLhigh-v(1-3) in the other EpoR chain (PSV40-IgK-BclXLhigh-V(1-3)-EpoRm-IL-6RBm-pA). HEK293T cells were transfected with […]

CN(C)CC#Cc1ccc(OCCCc2sc(N3CCc4cccc(C(=O)Nc5nc6ccccc6s5)c4C3)nc2C(=O)O)c(F)c1 [A-1155463]
Raw data of Figure 5b, CBPA11-v1-LD3v3 (SEAP reporter raw value, single replicate) (A-1155463 10000 nM, construct CBPA11-v1-LD3v3, three replicate columns): 23.9254 and 24.8005 and 21.4423 | Raw data of Figure 5b, CBPA11-v1 (SEAP reporter raw value, single replicate) (A-1155463 10000 nM, construct CBPA11-v1, three replicate columns): 69.4522 and 75.5808 and 84.1281 | Raw data of Independent repeat of CBPA11-v1 vs CBPA11-v1-LD3v3 (CBPA11-v1, A-1155463 0.01 nM): 21.5154 and 21.2395 and 24.0629 | Normalized data Figure 5e (CBPA11-v1, A-1155463 1 nM): 6.4824 and 7.053 and 8.837 | Normalized data of Figure 5b (CBPA11-v1, A-1155463 1 nM): 1.402 and 1.595 and 1.731 | Raw data of Figure 5b (CBPA11-v1, A-1155463 1 nM): 11.9307 and 13.3631 and 14.4518 | Raw data of Independent repeat of CBPA11-v1 vs CBPA11-v1-LD3v3 (CBPA11-v1, A-1155463 1 nM): 71.2806 and 66.4229 and 63.7452 | Raw data of Independent repeat of CBPA11-v1 vs CBPA11-v1-LD3v3 (CBPA11-v1, A-1155463 3.16 nM): 80.0965 and 82.8427 and 80.4448 | Normalized data Figure 5e (CBPA11-v1, A-1155463 3.18 nM): 7.202 and 10.0096 and 11.7189 | Normalized data Figure 5e (CBPA11-v1, A-1155463 10 nM): 46.8388 and 51.1661 and 51.2149 | Normalized data of Figure 5b (CBPA11-v1, A-1155463 10 nM): 14.5535 and 13.2638 and 13.0086 | Raw data of Figure 5b (CBPA11-v1, A-1155463 10 nM): 123.839 and 111.135 and 108.599 | Raw data of Independent repeat of CBPA11-v1 vs CBPA11-v1-LD3v3 (CBPA11-v1, A-1155463 10 nM): 462.474 and 463.658 and 418.386 | Raw data of Independent repeat of CBPA11-v1 vs CBPA11-v1-LD3v3 (CBPA11-v1, A-1155463 31.6 nM): 571.289 and 570.216 and 457.441 | Normalized data Figure 5e (CBPA11-v1, A-1155463 31.8 nM): 63.7218 and 71.158 and 71.088 | Normalized data of Figure 5b (CBPA11-v1, A-1155463 31.8 nM): 45.8074 and 33.2331 and 44.7698 | Raw data of Figure 5b (CBPA11-v1, A-1155463 31.8 nM): 389.784 and 278.454 and 373.749 | Normalized data Figure 5e (CBPA11-v1, A-1155463 100 nM): 98.9083 and 100 | Normalized data of Figure 5b (CBPA11-v1, A-1155463 100 nM): 66.3164 and 72.6195 and 72.7718 | Raw data of Figure 5b (CBPA11-v1, A-1155463 100 nM): 564.299 and 608.466 and 607.516 | Raw data of Independent repeat of CBPA11-v1 vs CBPA11-v1-LD3v3 (CBPA11-v1, A-1155463 100 nM): 770.33 and 757.162 and 752.74 | Raw data of Independent repeat of CBPA11-v1 vs CBPA11-v1-LD3v3 (CBPA11-v1, A-1155463 316 nM): 692.583 and 694.97 and 762.999 | Normalized data Figure 5e (CBPA11-v1, A-1155463 318 nM): 100 and 89.6838 and 88.8002 | Normalized data of Figure 5b (CBPA11-v1, A-1155463 318 nM): 100 | Raw data of Figure 5b (CBPA11-v1, A-1155463 318 nM): 850.92 and 837.883 and 834.824 | Normalized data Figure 5e (CBPA11-v1, A-1155463 1000 nM): 87.8736 and 79.7319 and 71.766 | Normalized data of Figure 5b (CBPA11-v1, A-1155463 1000 nM): 69.8009 and 76.8483 and 84.4115 | Raw data of Figure 5b (CBPA11-v1, A-1155463 1000 nM): 593.95 and 643.898 and 704.687 | Raw data of Independent repeat of CBPA11-v1 vs CBPA11-v1-LD3v3 (CBPA11-v1, A-1155463 1000 nM): 543.865 and 540.678 and 577.914 | Raw data of Independent repeat of CBPA11-v1 vs CBPA11-v1-LD3v3 (CBPA11-v1, A-1155463 3160 nM): 413.782 and 413.648 and 344.2 | Normalized data Figure 5e (CBPA11-v1, A-1155463 3180 nM): 51.7606 and 52.3661 and 51.7462 | Normalized data of Figure 5b (CBPA11-v1, A-1155463 3180 nM): 53.3499 and 60.9077 and 57.5176 | Raw data of Figure 5b (CBPA11-v1, A-1155463 3180 nM): 453.965 and 510.335 and 480.171 | Normalized data Figure 5e (CBPA11-v1, A-1155463 10000 nM): 19.9955 and 19.9571 and 22.5422 | Normalized data of Figure 5b (CBPA11-v1, A-1155463 10000 nM): 33.8321 and 33.8547 and 35.5742 | Raw data of Figure 5b (CBPA11-v1, A-1155463 10000 nM): 287.884 and 283.663 and 296.982 | Raw data of Independent repeat of CBPA11-v1 vs CBPA11-v1-LD3v3 (CBPA11-v1, A-1155463 10000 nM): 129.42 and 154.739 and 117.07 | Normalized data Figure 5e (CBPA11-v1-BclXLv2, A-1155463 1 nM): 21.782 and 18.7434 and 19.0174 | Normalized data Figure 5e (CBPA11-v1-BclXLv2, A-1155463 3.18 nM): 30.7821 and 38.1789 and 36.4445 | Normalized data Figure 5e (CBPA11-v1-BclXLv2, A-1155463 10 nM): 85.4791 and 79.6848 and 85.0591 | Normalized data Figure 5e (CBPA11-v1-BclXLv2, A-1155463 31.8 nM): 84.8971 and 95.7911 and 86.6879 | Normalized data Figure 5e (CBPA11-v1-BclXLv2, A-1155463 100 nM): 100 and 90.6768 | Normalized data Figure 5e (CBPA11-v1-BclXLv2, A-1155463 318 nM): 91.2979 and 98.815 and 100 | Normalized data Figure 5e (CBPA11-v1-BclXLv2, A-1155463 1000 nM): 86.9949 and 91.0394 and 83.6084 | Normalized data Figure 5e (CBPA11-v1-BclXLv2, A-1155463 3180 nM): 69.3324 and 72.9533 and 70.3736 | Normalized data Figure 5e (CBPA11-v1-BclXLv2, A-1155463 10000 nM): 38.0946 and 36.2941 and 35.5843 | Raw data of Independent repeat of CBPA11-v1 vs CBPA11-v1-LD3v3 (CBPA11-v1-LD3v3, A-1155463 0.01 nM): 17.2788 and 15.3201 and 15.4842
